In one test the test system is hypoxia-induced seizures. The test is described as follows: Hypoxia-induced seizures in P10 rats. The following applies: hypoxia 15 min, i.p., Bumetanide 0.15 mg/kg 10 min prior, Phenobarbital 15 mg/kg 30 min prior, versus vehicle. It counts as in vivo, rat. The source says:
Litters of male Long-Evans hooded rats from Charles River Laboratories (Wilmington, Mass., USA) were used in this study. Each litter was divided into five treatment groups: no hypoxia control, hypoxia/DMSO in PBS, hypoxia/Bumetanide only, hypoxia/Phenobarbital only, and hypoxia/combination of Bumetanide and Phenobarbital. One to two litters were used for each run of the experiment, and each litter was housed together until the weaning age of P21.
Rats at P10 (˜18 to 22 grams) were exposed to global hypoxia for 15 minutes in an airtight chamber into which N2 gas was rapidly infused. The oxygen concentration was maintained at 7% for 8 minutes, 5% for 6 minutes, and 4% for 1 minute before termination of hypoxia, during which the animals were immediately removed from the chamber and exposed to room air. For each animal during hypoxia, a record of the total number of myoclonic seizures and the total number and length of time in seconds of tonic clonic seizures were kept. For analysis purposes, time lengths of each tonic clonic seizure for each animal were pooled to obtain total seizure time. […] The body temperature of all animals was maintained at 34-40° C. on a warming blanket; the temperatures of each animal were also recorded before and after submission to hypoxia. […]

Another test concerns the target T1, NKCCl (Rattus norvegicus, UniProt E9PTX9).
T1 construct: gramicidin perforated patch clamped CA1 pyramidal neuron in an acute hippocampal slice from a P5 rat; from tissue; host or cells: acute hippocampal slices of P3-P6 male Sprague-Dawley rats; CA1 pyramidal neurons
T1 sequence (E9PTX9 1-1203): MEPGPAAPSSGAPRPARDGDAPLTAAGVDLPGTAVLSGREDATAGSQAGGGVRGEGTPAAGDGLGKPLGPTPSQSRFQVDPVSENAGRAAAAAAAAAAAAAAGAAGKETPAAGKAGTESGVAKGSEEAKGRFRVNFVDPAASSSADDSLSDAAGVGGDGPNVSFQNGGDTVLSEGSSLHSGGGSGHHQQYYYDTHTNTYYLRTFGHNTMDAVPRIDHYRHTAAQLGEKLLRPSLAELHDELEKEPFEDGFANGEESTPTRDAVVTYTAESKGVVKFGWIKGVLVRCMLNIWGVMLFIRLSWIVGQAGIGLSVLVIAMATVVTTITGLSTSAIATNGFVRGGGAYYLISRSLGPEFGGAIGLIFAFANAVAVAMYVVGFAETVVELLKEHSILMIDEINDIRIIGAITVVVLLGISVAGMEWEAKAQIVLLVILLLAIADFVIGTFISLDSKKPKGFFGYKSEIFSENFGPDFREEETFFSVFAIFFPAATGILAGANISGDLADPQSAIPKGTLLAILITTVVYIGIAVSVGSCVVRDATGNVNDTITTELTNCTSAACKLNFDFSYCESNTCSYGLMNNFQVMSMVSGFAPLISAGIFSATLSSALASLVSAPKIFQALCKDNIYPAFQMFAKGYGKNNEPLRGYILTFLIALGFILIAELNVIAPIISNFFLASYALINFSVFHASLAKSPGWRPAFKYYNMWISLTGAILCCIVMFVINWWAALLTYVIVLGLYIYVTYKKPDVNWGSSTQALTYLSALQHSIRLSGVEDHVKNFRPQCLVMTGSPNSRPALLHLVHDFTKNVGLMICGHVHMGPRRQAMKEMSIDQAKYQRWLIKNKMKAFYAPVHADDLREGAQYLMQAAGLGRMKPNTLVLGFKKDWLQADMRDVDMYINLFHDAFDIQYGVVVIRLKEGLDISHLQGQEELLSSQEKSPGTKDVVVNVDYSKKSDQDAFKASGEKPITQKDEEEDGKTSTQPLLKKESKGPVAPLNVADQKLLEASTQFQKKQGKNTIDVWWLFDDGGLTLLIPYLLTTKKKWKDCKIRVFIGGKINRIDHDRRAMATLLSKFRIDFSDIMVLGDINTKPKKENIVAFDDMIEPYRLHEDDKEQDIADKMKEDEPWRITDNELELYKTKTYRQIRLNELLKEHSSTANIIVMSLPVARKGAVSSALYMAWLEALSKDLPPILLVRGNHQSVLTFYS
Description: Whole-cell voltage clamp, reversal potential of currents elicited by local GABA application (Egaba) in CA1 pyramidal cells. It counts as cell-based. The following applies: in the presence of bumetanide, n=6 cells from 8, p=0.005, control −37±2.72 mV.

SMILES strings stand for the structures.

Description for NKCCl: In one example, direct effect of bumetanide on Egaba (excitatory GABAA) can be tested. Here, whole-cell voltage clamp recordings to measure the reversal potential of currents elicited by local application of GABA (10 pM, 10 ms pulse duration) in CA1 pyramidal cells were used.
In one example, electrophysiological recordings are gathered from individual slices and subsequently transferred to a conventional submerged-type chamber and continuously superfused with, for example, oxygenated aCSF. Whole-cell recordings were generated. Patch electrodes were used, made by known methods. For whole-cell recording in voltage-clamp mode pipettes were filled with a buffered solution.

`CCCCNc1cc(C(=O)O)cc(S(N)(=O)=O)c1Oc1ccccc1` [bumetanide, 3-(aminosulfonyl)-5-(butylamino)-4-phenoxybenzoic acid]: the average seizing time result in the test on hypoxia-induced seizures was “did not significantly reduce”. In addition, at NKCCl, the “Egaba (reversal potential of currents elicited by local application of GABA)” value was −40.35+2.73 mV.

These data come from patent US20070043034A1, “Chlorine Ion Uptake Modulators and Uses Thereof” (priority 2005, published 2007).
